From patent US20160346255A1, “METHODS, AGENTS AND COMPOSITIONS FOR TREATMENT OF INFLAMMATORY CONDITIONS” (Betanien Hospital, priority 2014, published 2016)
Non-standard residues stand in square brackets, D forms with d. Residues, ends and D or L forms follow the SMILES beside them. *: point of attachment. dPhe(4-NHCONH2) = NC(=O)Nc1ccc(C[C@@H](N)C(=O)O)cc1; Dihydroorotyl(S) = O=C1C[C@@H](C(=O)*)NC(=O)N1; dPhe(4-Cl) = N[C@H](Cc1ccc(Cl)cc1)C(=O)O; Phe(4-NH2) = Nc1ccc(C[C@H](N)C(=O)O)cc1; d2Nal = N[C@H](Cc1ccc2ccccc2c1)C(=O)O; Lys(iPr) = CC(C)NCCCC[C@H](N)C(=O)O; d3Pal = N[C@H](Cc1cccnc1)C(=O)O

Assays:
Format in all cases: in vivo, human
[1] = system: Patients with Rheumatoid Arthritis; experiment: Rheumatoid arthritis patients treated with degarelix: clinical variables
Description: Examples of Treating Patients with Rheumatoid Arthritis with a GnRH Antagonist [table] […] Examples of Patients with Continued RA Improvement Over Several Weeks Despite Stably Low Levels of LH

[2] = system: Patient with Inflammatory Bowel Disease; experiment: Inflammatory bowel disease (colitis) patient treated with degarelix
Experimental: • person, diagnosed with colitis • Inflammatory bowel disease, colitis verified on colonic biopsy sample. Patients with inflammatory colitis usually have a higher incidence of autoimmune diseases. This patient also had ankylosing spondylitis. • September 2014 received first dose of degarelix 240 mg s.c. • Received degarelix 80 mg s.c. approximately every two weeks thereafter. • The inflammatory bowel diseases (IBDs), Crohn's disease and ulcerative colitis, are chronic relapsing, remitting disorders. The assessment of disease activity presents challenges to clinicians. Fecal biomarkers, such as fecal calprotectin, are a non-invasive method which can be used to aid managing clinicians. Calprotectin is released extracellularly in times of cell stress or damage and can be detected within feces and thus be used as a sensitive marker of intestinal inflammation. […] Fecal calprotectin levels are elevated in patients with both Crohn's disease and ulcerative colitis (1-2). There have been several studies looking at the use of fecal calprotectin to predict or monitor response to treatment. • In a study looking at 11 patients with relapsing IBD, fecal calprotectin was analysed at inclusion and after 8 weeks of treatment. Treatment was individualized medical therapy. A normalized fecal calprotectin concentration at 8 weeks predicted a complete response in 100% of patients (3), corresponding to endoscopic mucosal healing (4). It has been shown that in patients with steroid induced clinical remission fecal calprotectin levels can remain elevated (5-6). […] A level of <50 mg/kg is considered normal or remission for IBD. • There is no gold standard index in the measurement of colitis disease activity in clinical trials. Due to the invasive nature of endoscopies, the Mayo non-invasive colitis assessment of response score can be used to assess treatment effect of IBD in clinical trials (9-11). […] Both the partial Mayo and total Mayo score are used to assess disease activity in clinical trials (13). The partial Mayo score also had good discriminatory value between subjects in remission and those with active disease (14). A clinical response has been defined as a 3 point or greater change in the partial Mayo score (15).

Patient with Psoriasis = experiment: Psoriasis patient treated with degarelix
Experimental: The PASI score is a standardized score for assessing disease activity in psoriasis.
He therefore received testosterone supplementation in the form of Testogel containing 50 mg of testosterone, first daily; thereafter every 3 days to maintain testosterone levels within the normal range.
One trial examined 15 patients with psoriasis who were taking lithium.

[3] = system: Patient with Spondyloarthritis; experiment: Spondyloarthritis patient treated with degarelix; details: for BASDAI: baseline 3.8
Experimental: • person, diagnosed with spondyloarthritis • Fulfilled the ASAS criteria for axial radiographic spondyloarthritis. • October 2014 received first dose of degarelix, 240 mg s.c. • Received degarelix 80 mg s.c. every two weeks thereafter. Disease activity in ankylosing spondylitis/spondyloarthritis is measured by the BASDAI (Bath Ankylosing Spondylitis Disease Activity Index (1)), has been extensively validated in clinical trials (2-3), and is one of the most commonly used outcome measures in clinical trials. This is a composite index that evaluates fatigue, axial and peripheral pain, stiffness and enthesopathy. Their BASDAI was at 3.8 at baseline. In October 2014 they received their first dose of degarelix 240 mg s.c. By 2 weeks, their BASDAI had reduced to 2.9, and by 8 weeks it had reduced to 1.3, remission. At 4 months, their BASDAI continues to be low at 1.5. • Response to therapy in clinical practice is defined as improvement of 2 units or 50% on a 0-10 scale of the BASDAI, and expert opinion that the treatment should be continued. Their reduction by 4 months was 2.3. We shall continue treatment.

[4] = Patient 2, 15 weeks, baseline 17
[5] = Patient 2, 15 weeks, baseline 90

SMILES: CC(=O)N[C@H](Cc1ccc2ccccc2c1)C(=O)N[C@H](Cc1ccc(Cl)cc1)C(=O)N[C@H](Cc1cccnc1)C(=O)N[C@@H](CO)C(=O)N[C@@H](Cc1ccc(NC(=O)[C@@H]2CC(=O)NC(=O)N2)cc1)C(=O)N[C@H](Cc1ccc(NC(N)=O)cc1)C(=O)N[C@@H](CC(C)C)C(=O)N[C@@H](CCCCNC(C)C)C(=O)N1CCC[C@H]1C(=O)N[C@H](C)C(N)=O [degarelix] (Ac-[d2Nal][dPhe(4-Cl)][d3Pal]S[Phe(4-NH2)](Dihydroorotyl(S))[dPhe(4-NHCONH2)]L[Lys(iPr)]P[dA]-NH2)
- Function score (Good <1), final ([1]; Patient 1, 28 weeks, baseline 1.25): 1.25, 0
- Morning stiffness, final ([1]; Patient 1, 28 weeks, baseline 2.5): 2.5, 0 hrs
- Swollen joint count assessed with ultrasound, final ([1]; Patient 1, 28 weeks, baseline 6): 6, 0
- Tender joint, final ([1]; Patient 1, 28 weeks, baseline 9): 9, 0
- Patient own assessment (0-100), final ([1]; Patient 1, 28 weeks, baseline 81): 81, 0
- Physician assessment (0-100), final ([1]; Patient 1, 28 weeks, baseline 85): 85, 7
- ACR % Response ([1]; Patient 1, treatment duration 28 weeks): 90%
- Function score (Good <1), final ([1]; Patient 2, 15 weeks, baseline 2.0): 2.0, 0.25
- Morning stiffness, final ([1]; Patient 2, 15 weeks, baseline 9): 9, 1 hrs
- Swollen joint count assessed with ultrasound, final [1, 4]: 17, 2
- Tender joint, final [1, 4]: 17, 3
- Patient own assessment (0-100), final [1, 5]: 90, 35
- Physician assessment (0-100), final [1, 5]: 90, 40
- ACR % Response ([1]; Patient 2, treatment duration 15 weeks): 60%
- ACR % Response ([1]; Patient 3, 4 wks): 30%
- ACR % Response ([1]; Patient 3, 8 wks): 40%
- Function score (Good <1), final ([1]; Patient 3, 12 weeks, baseline 1.75): 1.75, 0.63
- Morning stiffness, final ([1]; Patient 3, 12 weeks, baseline 7): 7, ½
- Swollen joint count assessed with ultrasound, final ([1]; Patient 3, 12 weeks, baseline 23): 23, 4
- Tender joint, final ([1]; Patient 3, 12 weeks, baseline 26): 26, 11
- Patient own assessment (0-100), final ([1]; Patient 3, 12 weeks, baseline 50): 50, 30
- Physician assessment (0-100), final ([1]; Patient 3, 12 weeks, baseline 90): 90, 30
- ACR % Response ([1]; Patient 3, 12 wks): 50%
- ACR % Response ([1]; Patient 3, treatment duration 12 weeks): 50%
- ACR % Response ([1]; Patient 4, 3½ wks): 20%
- Function score (Good <1), final ([1]; Patient 4, 9 weeks, baseline 0.88): 0.88, 0.38
- Morning stiffness, final ([1]; Patient 4, 9 weeks, baseline 7): 7, 3 hrs
- Swollen joint count assessed with ultrasound, final ([1]; Patient 4, 9 weeks, baseline 24): 24, 3
- Tender joint, final ([1]; Patient 4, 9 weeks, baseline 28): 28, 11
- Physician assessment (0-100), final ([1]; Patient 4, 9 weeks, baseline 80): 80, 40
- Patient own assessment (0-100), final ([1]; Patient 4, 9 weeks, baseline 90): 90, 50
- ACR % Response ([1]; Patient 4, 9 wks): 50%
- ACR % Response ([1]; Patient 4, treatment duration 9 weeks): 50%
- Function score (Good <1), final ([1]; Patient 5, 7 weeks, baseline 1.29): 1.29, 0.88
- Morning stiffness, final ([1]; Patient 5, 7 weeks, baseline 2.5): 2.5, ¾
- Swollen joint count assessed with ultrasound, final ([1]; Patient 5, 7 weeks, baseline 10): 10, 2
- Tender joint, final ([1]; Patient 5, 7 weeks, baseline 12): 12, 0
- Physician assessment (0-100), final ([1]; Patient 5, 7 weeks, baseline 70): 70, 20
- Patient own assessment (0-100), final ([1]; Patient 5, 7 weeks, baseline 88, footnote: muscular pain in arms): 88, 88^3
- Power Doppler (inflammatory activity) on ultrasound of shoulder and MCP 4 joints ([1]; Patient 5, after treatment, power Doppler present before (FIG. 2)): no power Doppler
- ACR % Response ([1]; Patient 5, treatment duration 7 weeks): 30%
- Function score (Good <1), final ([1]; Patient 6, 36 weeks, baseline 1.5): 1.5, 0.625
- Morning stiffness, final ([1]; Patient 6, 36 weeks, baseline 2): 2, 0 hrs
- Swollen joint count assessed with ultrasound, final ([1]; Patient 6, 36 weeks, baseline 16): 16, 0
- Tender joint, final ([1]; Patient 6, 36 weeks, baseline 24): 24, 0
- Patient own assessment (0-100), final ([1]; Patient 6, 36 weeks, baseline 60): 60, 7
- Physician assessment (0-100), final ([1]; Patient 6, 36 weeks, baseline 90): 90, 7
- Effusion over the right wrist on ultrasound ([1]; Patient 6, by 3.5 weeks of degarelix, large effusion before (FIG. 4)): much smaller
- ACR % Response ([1]; Patient 6, treatment duration 36 weeks): 80%
- Fecal calprotectin (<50 normal) ([2]; 2 Oct. 2014, normal): 48, normal mg/kg
- Fecal calprotectin (<50 normal) ([2]; 10 Jan. 2015, normal): 32, normal mg/kg
- Fecal calprotectin (<50 normal) ([2]; 24 Sep. 2014 (started 10.09.14), high): 79, high mg/kg
- Partial Mayo score ([2]; at 12 weeks, baseline 3): 0
- Testosterone (normal 8-35 nmol/L) (Patient with Psoriasis; after the first week, before 12 nmol/L): < 1 nmol/L
- Improvement in psoriasis (Patient with Psoriasis; at 6 months): stable
- PASI absolute reduction (Patient with Psoriasis; by 8 weeks): 12.3 points
- PASI reduction (Patient with Psoriasis; by 8 weeks): 23%
- PASI score (Patient with Psoriasis; by 8 weeks, baseline 53.6): 41.3
- Testosterone (normal 8-35 nmol/L) (Patient with Psoriasis; week 8, under testosterone substitution (Testogel)): 9 nmol/L
- BASDAI ([3]; at 4 months): 1.5
- BASDAI ([3]; by 2 weeks): 2.9
- BASDAI reduction ([3]; by 4 months): 2.3
- BASDAI ([3]; by 8 weeks, remission): 1.3
